Test results taken from US11612586B2, “Indole regulation of antigen presenting cells” (THE TEXAS A&M UNIVERSITY SYSTEM, priority 2016, dated 2023).

What was measured:
[1] = test system: naïve CD4+CD25− T cells; experiment: T cell activation in the presence of BMDC supernatant: Treg induction; assay type: cell-based, mouse; settings: T cells on α-CD3/α-CD28 plates, 72 hours
Procedure: Specifically, naïve CD4+CD25− T cells were FACS-sorted and plated in 96-well, α-CD3 and α-CD28-coated tissue culture plates in a volume of 100 ul cell culture media. […] T cells with DC supernatant were cultured for 72 hours in the presence or absence of exogenous TGF-β. Subsequently, cells were stained for the transcription factor Foxp3 and analyzed by flow cytometry.
Naïve CD4+CD25− T cells were FACS-sorted as described above and plated in 96-well, αCD3 and αCD28-coated tissue culture plates in a volume of 100 ul cell culture media. An equal volume of spent BMDC supernatant was added, in the presence or absence of exogenous TGF-β, and T cells were cultured for 72 hours. To generate supernatants, day 3-treated BMDCs were collected on day 7, washed extensively and plated in a 48-well cell culture plate at 5×10^5 cells per well in 500 ul fresh complete media for 24 hours in the presence or absence of 1 ug/ml LPS. Plates were then centrifuged and supernatants were collected, filtered, and stored at −20° C. until use.

[2] = test system: naïve CD4+CD25− T cells; experiment: DC-T cell co-culture, monoclonal (OT-II, OVA323-339) stimulation: Foxp3+ Treg induction; assay type: cell-based, mouse
Procedure: FIG. 16 graphically illustrates that indole-conditioned DCs preferentially induce Foxp3+ Tregs (monoclonal stimulation). Naïve CD4+CD25− T cells from OT-II TCR transgenic mice were isolated and labeled with cell proliferation dye. Naïve T cells were then co-cultured with OVA323-339 peptide-loaded BMDCs for 72 hours in the presence of TGF-β as indicated. BMDCs were previously treated with indole, RA, or DMF from day 3. Following 3 days of co-culture, surface and intracellular staining was performed for flow cytometric analysis. The mean percentage of Foxp3-positive […] from four independent experiments is shown. * indicates p<0.05 for one-way ANOVA followed by Dunnett's post-test.
FIGS. 20A and 20B graphically illustrate that T cell skewing mediated by indole-conditioned DCs is AhR-independent. BMDCs were differentiated from WT or AhR-KO mice and conditioned with indole, RA, or DMF from day 3. DCs were then loaded with OVA323-339 and co-cultured with naïve CD4+CD25− T cells from OT-II transgenic mice for 72 hours. For Th1 cultures, T cells were restimulated with PMA and ionomycin in the presence of golgiplug for the last 5 hours of culture. Subsequently, all cultures were stained and analyzed by flow cytometry for Foxp3 to identify Tregs or (B) IFNγ to identify Th1 cells.
To investigate whether indole-conditioned DCs preferentially induce Tregs, a co-culture system using FACS-sorted wild-type naïve CD4+CD25− T cells was employed. These naïve T cells were activated by antibodies against CD3 and CD28 in the presence of indole-conditioned BMDCs and cultured for 72 hours. Under this platform for polyclonal stimulation, a 2-fold increase in Treg induction in indole-DC cultures compared to controls was observed (FIG. 15). Additionally, the inventors pursued the same question in a more physiologically relevant model; i.e., under monoclonal T cell stimulation. […]

[3] = biological target: T1, AhR (Homo sapiens, UniProt P35869); settings: cited from earlier work
T1 construct: host or cells: CaC-2 intestinal cells; yeast; a liver cancer cell line
T1 sequence (P35869 11-848): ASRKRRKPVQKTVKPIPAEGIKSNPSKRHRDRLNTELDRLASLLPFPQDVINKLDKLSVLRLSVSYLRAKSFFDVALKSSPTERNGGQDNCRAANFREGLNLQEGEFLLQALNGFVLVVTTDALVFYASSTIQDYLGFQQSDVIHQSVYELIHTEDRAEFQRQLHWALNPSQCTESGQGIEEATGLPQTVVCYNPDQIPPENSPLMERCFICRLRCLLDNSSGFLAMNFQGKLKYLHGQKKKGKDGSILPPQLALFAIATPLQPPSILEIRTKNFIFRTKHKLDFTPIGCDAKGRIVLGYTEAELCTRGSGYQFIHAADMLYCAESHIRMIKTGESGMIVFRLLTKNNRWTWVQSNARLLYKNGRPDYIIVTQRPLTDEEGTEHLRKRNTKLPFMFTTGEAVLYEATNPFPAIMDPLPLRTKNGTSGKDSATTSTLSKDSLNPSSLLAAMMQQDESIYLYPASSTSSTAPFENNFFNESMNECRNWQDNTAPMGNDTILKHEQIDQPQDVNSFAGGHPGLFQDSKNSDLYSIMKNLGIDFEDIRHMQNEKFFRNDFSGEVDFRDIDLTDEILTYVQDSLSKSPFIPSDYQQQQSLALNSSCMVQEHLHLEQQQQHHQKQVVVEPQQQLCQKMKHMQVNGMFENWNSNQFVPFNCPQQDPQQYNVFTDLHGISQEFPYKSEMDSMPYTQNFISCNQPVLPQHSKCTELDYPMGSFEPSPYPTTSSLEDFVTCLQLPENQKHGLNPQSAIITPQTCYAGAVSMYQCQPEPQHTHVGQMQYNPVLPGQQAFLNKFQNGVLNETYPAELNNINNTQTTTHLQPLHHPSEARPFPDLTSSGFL

For c1ccc2[nH]ccc2c1 [Indole, indole], the “Treg induction by supernatant of conditioned BMDCs relative to solvent control DCs” value [1] was “No significant induction of Tregs”, the “Treg induction above solvent controls” value ([2]; BMDCs conditioned with indole, exogenous TGF-β absent or 2 ng/ml) was “Significance was not reached” and the “Treg induction above solvent controls” value ([2]; OT-II T cells with OVA-loaded BMDCs conditioned with indole, TGF-β at 10 and 30 ng/ml) was 3.5 fold. The “AhR dependence of Treg skewing” value ([2]; indole-conditioned BMDCs from wild-type or AhR−/− mice) was “entirely independent of AhR”, the “AhR activity in CaC-2 intestinal cells” value ([3]; previous finding of the inventors) was “antagonist” and the “AhR effect in a liver cancer cell line” value ([3]; previously reported) was “antagonistic”. The “AhR effect in yeast” value ([3]; previously reported) was “agonistic”.
